Experimental data published in patent publication US7736537B1, “Replacement solvents having improved properties for refrigeration flushes” (Mainstream Engineering Corp., priority 2008, dated 2010).

Details: Table 1; cited from earlier work

| Compound | BP [C.] |
| --- | --- |
| F/C(OC(F)(F)Br)=C(/F)C(F)(F)F [(E)-1-(bromodifluoromethoxy)-1,2,3,3,3-pentafluoro-1-propene] | 65.2 |
| FCOC(C(F)(F)F)C(F)(F)F [fluoromethyl 2,2,2-trifluoro-1-(trifluoromethyl)ethyl ether, reference compound] | 59.0 |
| OCC(C(F)(F)F)(C(F)(F)F)C(F)(F)F [3,3,3-trifluoro-bis-2,2-(trifluoromethyl)-1-propanol] | 86.1 |
| C=C(OC(F)(F)Br)C(F)(F)F [1-(bromodifluoromethoxy)-1-(trifluoromethyl)ethene] | 66.3 |
| Fc1c(F)c(C(F)(F)F)c(F)c(F)c1Br [4-bromoheptafluorotoluene] | 151.3 |
| F/C(=C(\F)C(F)(F)Br)C(F)(F)F [(Z)-1-bromo-perfluoro-2-butene] | 48.0 |
| C=C(Br)C(F)(F)C(F)(F)F [2-bromo-3,3,4,4,4-pentafluorobutene] | 66.1 |
| COC(C(F)(F)F)C(F)(F)F [methyl 2,2,2-trifluroethyl-1-(trifluoromethyl)ether] | 50.8 |
| 1-bromo-bis(perfluoromethyl)ethylene | 45.1 |
| FC(F)(F)/C=C\OC(F)(F)Br [(Z)-1-(bromodifluoromethoxy)-2-(trifluoromethyl)ethene] | 57.8 |
| FC(F)(F)C(F)(F)C(F)(F)C(F)(F)/C=C\C(F)(F)C(F)(F)C(F)(F)C(F)(F)F [1,2-(Z)-bis(perfluoro-n-butyl)ethylene] | 132.0 |
| FC(F)(F)c1cc(C(F)(F)F)c(Br)c(C(F)(F)F)c1 [1-bromo-2,4,6-tris(trifluoromethyl)benzene] | 173.4 |
| C=CC(F)(Cl)C(F)(F)Br (stereo not shown) [4-bromo-3-chloro-3,4,4-trifluoro-1-butene] | 99.7 |
| FC(F)(Br)OC=C(C(F)(F)F)C(F)(F)F [1-(bromodifluoromethoxy)-2-(trifluoromethyl)-3,3,3-trifluoro-1-propene] | 78.3 |
| F/C(=C(/Br)C(F)(F)F)C(F)(F)F [(E)-2-bromo-1,1,1,3,4,4,4-heptafluoro-2-butene] | 49.0 |
| FC1C(F)C(F)(F)C(F)(F)C(F)C1(F)F (stereo not shown) [1H,2H,4H-nonafluorocyclohexane] | 65.0 |
| CC(=O)C(F)(F)C(F)(F)C(F)(F)F [methyl heptafluoropropyl ketone] | 63.5 |
| F/C(=C(/F)C(F)(F)Br)C(F)(F)F [(E)-1-bromo-perfluoro-2-butene] | 48.0 |
| FC1(F)C(Cl)=C(Cl)C(F)(F)C(F)(F)C1(F)F [1,2-dichloro-3,3,4,4,5,5,6,6-octafluoro-cyclohexene] | 123.8 |
| OC(C(F)(F)F)(C(F)(F)F)C(F)(F)F [1,1,1,3,3,3-hexafluoro-2-(trifluoromethyl)-2-propanol] | 46.0 |
| FC(F)(F)O/C=C\OC(F)(F)Br [(Z)-1-(bromodifluoromethoxy)-2-(trifluoromethoxy)ethene] | 76.5 |
| FC1=C(OCC(F)(F)F)C(F)(F)C(F)(F)C(F)(F)C1(F)F [1-(2,2,2-trifluoroethoxy)nonafluoro-cyclohexene] | 113.7 |
| F/C(OC(F)(F)Br)=C(\F)C(F)(F)F [(Z)-1-(bromodifluoromethoxy)-1,2,3,3,3-pentafluoro-1-propene] | 65.2 |
| O=C(CC(F)(F)F)CC(F)(F)Br [1,1,5,5,5-pentafluoro-1-bromo-3-pentanone] | 118.4 |
| FC(F)=C(F)C(F)(Br)C(F)(F)F (stereo not shown) [3-bromo-1,1,2,3,4,4,4-heptafluorobutene] | 47.5 |
| FC(=C(C(F)(F)F)C(F)(F)F)C(F)(F)Br [4-bromo-1,1,1,3,4,4-hexafluoro-2-(trifluoromethyl)-2-butene] | 68.1 |
| Fc1c(F)c(Br)c(F)c(C(F)(F)F)c1F [3-bromoheptafluorotoluene] | 153.0 |
| F/C(=C(\Br)C(F)(F)F)C(F)(F)F [(Z)-2-bromo-1,1,1,3,4,4,4-heptafluoro-2-butene] | 49.0 |
| FC(F)(Cl)C(F)(Cl)Cl [CFC-113, 1,1,2-trichloro-1,2,2-trifluoroethane, reference compound] | 47.6 |

Details: cardiac sensitization relative to CFC-113
Description: Parameters such as the lethal dose 50 (LD50), lethal concentration 50 (LC50), cardiac sensitization, skin irritation, and mutagenicity (e.g., via the Ames test) can be used as toxicity metrics. The LDn or LCn abbreviations, where n is the percent lethality, are used for the dose of a toxicant lethal to n % of a test population. […] Cardiac sensitization is a measure of the ability of a compound to cause cardiac arrhythmia under stress.
The property modification components are chosen from a list of potential replacement solvents. These compounds included halogenated compounds such as halogenated acetates, alcohols, alkanes, cycloalkanes, alkenes, cycloalkenes, amines, anhydrides, aromatics, carbonyls, diones, esters, ethers, heterocyclics and ketones.

| Compound | CS/CS113 |
| --- | --- |
| F/C(OC(F)(F)Br)=C(/F)C(F)(F)F [(E)-1-(bromodifluoromethoxy)-1,2,3,3,3-pentafluoro-1-propene] | 70.1 |
| FCOC(C(F)(F)F)C(F)(F)F [fluoromethyl 2,2,2-trifluoro-1-(trifluoromethyl)ethyl ether, reference compound] | 103.0 |
| OCC(C(F)(F)F)(C(F)(F)F)C(F)(F)F [3,3,3-trifluoro-bis-2,2-(trifluoromethyl)-1-propanol] | 40.7 |
| C=C(OC(F)(F)Br)C(F)(F)F [1-(bromodifluoromethoxy)-1-(trifluoromethyl)ethene] | 27.7 |
| Fc1c(F)c(C(F)(F)F)c(F)c(F)c1Br [4-bromoheptafluorotoluene] | 37.9 |
| F/C(=C(\F)C(F)(F)Br)C(F)(F)F [(Z)-1-bromo-perfluoro-2-butene] | 41.4 |
| C=C(Br)C(F)(F)C(F)(F)F [2-bromo-3,3,4,4,4-pentafluorobutene] | 10.5 |
| COC(C(F)(F)F)C(F)(F)F [methyl 2,2,2-trifluroethyl-1-(trifluoromethyl)ether] | 107.3 |
| 1-bromo-bis(perfluoromethyl)ethylene | 42.7 |
| FC(F)(F)/C=C\OC(F)(F)Br [(Z)-1-(bromodifluoromethoxy)-2-(trifluoromethyl)ethene] | 54.3 |
| FC(F)(F)C(F)(F)C(F)(F)C(F)(F)/C=C\C(F)(F)C(F)(F)C(F)(F)C(F)(F)F [1,2-(Z)-bis(perfluoro-n-butyl)ethylene] | 1188.5 |
| FC(F)(F)c1cc(C(F)(F)F)c(Br)c(C(F)(F)F)c1 [1-bromo-2,4,6-tris(trifluoromethyl)benzene] | 113.0 |
| C=CC(F)(Cl)C(F)(F)Br (stereo not shown) [4-bromo-3-chloro-3,4,4-trifluoro-1-butene] | 0.8 |
| FC(F)(Br)OC=C(C(F)(F)F)C(F)(F)F [1-(bromodifluoromethoxy)-2-(trifluoromethyl)-3,3,3-trifluoro-1-propene] | 151.6 |
| F/C(=C(/Br)C(F)(F)F)C(F)(F)F [(E)-2-bromo-1,1,1,3,4,4,4-heptafluoro-2-butene] | 48.6 |
| FC1C(F)C(F)(F)C(F)(F)C(F)C1(F)F (stereo not shown) [1H,2H,4H-nonafluorocyclohexane] | 18.5 |
| CC(=O)C(F)(F)C(F)(F)C(F)(F)F [methyl heptafluoropropyl ketone] | 25.4 |
| F/C(=C(/F)C(F)(F)Br)C(F)(F)F [(E)-1-bromo-perfluoro-2-butene] | 41.4 |
| FC1(F)C(Cl)=C(Cl)C(F)(F)C(F)(F)C1(F)F [1,2-dichloro-3,3,4,4,5,5,6,6-octafluoro-cyclohexene] | 15.5 |
| OC(C(F)(F)F)(C(F)(F)F)C(F)(F)F [1,1,1,3,3,3-hexafluoro-2-(trifluoromethyl)-2-propanol] | 61.2 |
| FC(F)(F)O/C=C\OC(F)(F)Br [(Z)-1-(bromodifluoromethoxy)-2-(trifluoromethoxy)ethene] | 144.9 |
| FC1=C(OCC(F)(F)F)C(F)(F)C(F)(F)C(F)(F)C1(F)F [1-(2,2,2-trifluoroethoxy)nonafluoro-cyclohexene] | 70.2 |
| F/C(OC(F)(F)Br)=C(\F)C(F)(F)F [(Z)-1-(bromodifluoromethoxy)-1,2,3,3,3-pentafluoro-1-propene] | 70.1 |
| O=C(CC(F)(F)F)CC(F)(F)Br [1,1,5,5,5-pentafluoro-1-bromo-3-pentanone] | 34.2 |
| FC(F)=C(F)C(F)(Br)C(F)(F)F (stereo not shown) [3-bromo-1,1,2,3,4,4,4-heptafluorobutene] | 21.9 |
| FC(=C(C(F)(F)F)C(F)(F)F)C(F)(F)Br [4-bromo-1,1,1,3,4,4-hexafluoro-2-(trifluoromethyl)-2-butene] | 103.2 |
| Fc1c(F)c(Br)c(F)c(C(F)(F)F)c1F [3-bromoheptafluorotoluene] | 21.1 |
| F/C(=C(\Br)C(F)(F)F)C(F)(F)F [(Z)-2-bromo-1,1,1,3,4,4,4-heptafluoro-2-butene] | 48.6 |

Details: solubility parameter, Table 1; cited from earlier work

| Compound | SP |
| --- | --- |
| F/C(OC(F)(F)Br)=C(/F)C(F)(F)F [(E)-1-(bromodifluoromethoxy)-1,2,3,3,3-pentafluoro-1-propene] | 7.25 (cal/cm^3)^1/2 |
| FCOC(C(F)(F)F)C(F)(F)F [fluoromethyl 2,2,2-trifluoro-1-(trifluoromethyl)ethyl ether, reference compound] | 7.10 (cal/cm^3)^1/2 |
| OCC(C(F)(F)F)(C(F)(F)F)C(F)(F)F [3,3,3-trifluoro-bis-2,2-(trifluoromethyl)-1-propanol] | 6.81 (cal/cm^3)^1/2 |
| C=C(OC(F)(F)Br)C(F)(F)F [1-(bromodifluoromethoxy)-1-(trifluoromethyl)ethene] | 7.67 (cal/cm^3)^1/2 |
| Fc1c(F)c(C(F)(F)F)c(F)c(F)c1Br [4-bromoheptafluorotoluene] | 7.66 (cal/cm^3)^1/2 |
| F/C(=C(\F)C(F)(F)Br)C(F)(F)F [(Z)-1-bromo-perfluoro-2-butene] | 6.78 (cal/cm^3)^1/2 |
| C=C(Br)C(F)(F)C(F)(F)F [2-bromo-3,3,4,4,4-pentafluorobutene] | 7.19 (cal/cm^3)^1/2 |
| COC(C(F)(F)F)C(F)(F)F [methyl 2,2,2-trifluroethyl-1-(trifluoromethyl)ether] | 7.26 (cal/cm^3)^1/2 |
| 1-bromo-bis(perfluoromethyl)ethylene | 7.06 (cal/cm^3)^1/2 |
| FC(F)(F)/C=C\OC(F)(F)Br [(Z)-1-(bromodifluoromethoxy)-2-(trifluoromethyl)ethene] | 7.63 (cal/cm^3)^1/2 |
| FC(F)(F)C(F)(F)C(F)(F)C(F)(F)/C=C\C(F)(F)C(F)(F)C(F)(F)C(F)(F)F [1,2-(Z)-bis(perfluoro-n-butyl)ethylene] | 6.81 (cal/cm^3)^1/2 |
| FC(F)(F)c1cc(C(F)(F)F)c(Br)c(C(F)(F)F)c1 [1-bromo-2,4,6-tris(trifluoromethyl)benzene] | 7.76 (cal/cm^3)^1/2 |
| C=CC(F)(Cl)C(F)(F)Br (stereo not shown) [4-bromo-3-chloro-3,4,4-trifluoro-1-butene] | 7.76 (cal/cm^3)^1/2 |
| FC(F)(Br)OC=C(C(F)(F)F)C(F)(F)F [1-(bromodifluoromethoxy)-2-(trifluoromethyl)-3,3,3-trifluoro-1-propene] | 7.26 (cal/cm^3)^1/2 |
| F/C(=C(/Br)C(F)(F)F)C(F)(F)F [(E)-2-bromo-1,1,1,3,4,4,4-heptafluoro-2-butene] | 6.82 (cal/cm^3)^1/2 |
| FC1C(F)C(F)(F)C(F)(F)C(F)C1(F)F (stereo not shown) [1H,2H,4H-nonafluorocyclohexane] | 7.02 (cal/cm^3)^1/2 |
| CC(=O)C(F)(F)C(F)(F)C(F)(F)F [methyl heptafluoropropyl ketone] | 7.32 (cal/cm^3)^1/2 |
| F/C(=C(/F)C(F)(F)Br)C(F)(F)F [(E)-1-bromo-perfluoro-2-butene] | 6.85 (cal/cm^3)^1/2 |
| FC1(F)C(Cl)=C(Cl)C(F)(F)C(F)(F)C1(F)F [1,2-dichloro-3,3,4,4,5,5,6,6-octafluoro-cyclohexene] | 7.55 (cal/cm^3)^1/2 |
| OC(C(F)(F)F)(C(F)(F)F)C(F)(F)F [1,1,1,3,3,3-hexafluoro-2-(trifluoromethyl)-2-propanol] | 6.84 (cal/cm^3)^1/2 |
| FC(F)(F)O/C=C\OC(F)(F)Br [(Z)-1-(bromodifluoromethoxy)-2-(trifluoromethoxy)ethene] | 7.79 (cal/cm^3)^1/2 |
| FC1=C(OCC(F)(F)F)C(F)(F)C(F)(F)C(F)(F)C1(F)F [1-(2,2,2-trifluoroethoxy)nonafluoro-cyclohexene] | 7.51 (cal/cm^3)^1/2 |
| F/C(OC(F)(F)Br)=C(\F)C(F)(F)F [(Z)-1-(bromodifluoromethoxy)-1,2,3,3,3-pentafluoro-1-propene] | 7.22 (cal/cm^3)^1/2 |
| O=C(CC(F)(F)F)CC(F)(F)Br [1,1,5,5,5-pentafluoro-1-bromo-3-pentanone] | 7.89 (cal/cm^3)^1/2 |
| FC(F)=C(F)C(F)(Br)C(F)(F)F (stereo not shown) [3-bromo-1,1,2,3,4,4,4-heptafluorobutene] | 6.75 (cal/cm^3)^1/2 |
| FC(=C(C(F)(F)F)C(F)(F)F)C(F)(F)Br [4-bromo-1,1,1,3,4,4-hexafluoro-2-(trifluoromethyl)-2-butene] | 6.51 (cal/cm^3)^1/2 |
| Fc1c(F)c(Br)c(F)c(C(F)(F)F)c1F [3-bromoheptafluorotoluene] | 7.66 (cal/cm^3)^1/2 |
| F/C(=C(\Br)C(F)(F)F)C(F)(F)F [(Z)-2-bromo-1,1,1,3,4,4,4-heptafluoro-2-butene] | 6.79 (cal/cm^3)^1/2 |
